From article PMC5491562, “Effects of semaglutide on beta cell function and glycaemic control in participants with type 2 diabetes: a randomised, double-blind, placebo-controlled trial” (Diabetologia, 2017)

How the values were obtained:
[1] = cited from earlier work
Text: Semaglutide (Novo Nordisk, Bagsværd, Denmark) is a GLP-1 analogue in development for the once-weekly treatment of type 2 diabetes. It has 94% structural homology to native human GLP-1, and is based on the same […] technology as liraglutide. Important structural modifications make semaglutide more resistant to degradation by dipeptidyl peptidase-4 and improve binding to albumin [16]. These modifications result in a t ½ of approximately 1 week, making semaglutide appropriate for once-weekly s.c. administration, with a fully retained potency.

[2] = tested on: participants with type 2 diabetes; settings: in vivo
Description: Adverse events (AEs) were recorded from the time of the participant signing informed consent through to the end of follow-up and were regarded as treatment-emergent adverse events (TEAEs) if beginning (or increasing in severity) after the first study dose and no later than the end of follow-up.

[3] = Steady-state pharmacokinetics of semaglutide; settings: 1.0 mg s.c. at steady state; estimated in 34 participants; geometric mean (CV, %)
Text: Blood samples were drawn throughout the trial to assess PK (trough values).
time–concentration curve during a dosing interval), calculated using standard non-
compartmental methods using the linear trapezoidal method on the observed concentrations
using actual time points; maximum concentration (Cmax), derived as the maximum of all
half-life (t½), calculated as log2/λz, where λz was estimated by log-linear regression on the

Question: With CC[C@H](C)[C@H](NC(=O)[C@H](Cc1ccccc1)NC(=O)[C@H](CCC(=O)O)NC(=O)[C@H](CCCCNC(=O)COCCOCCNC(=O)COCCOCCNC(=O)CC[C@H](NC(=O)CCCCCCCCCCCCCCCCC(=O)O)C(=O)O)NC(=O)[C@H](C)NC(=O)[C@H](C)NC(=O)[C@H](CCC(N)=O)NC(=O)CNC(=O)[C@H](CCC(=O)O)NC(=O)[C@H](CC(C)C)NC(=O)[C@H](Cc1ccc(O)cc1)NC(=O)[C@H](CO)NC(=O)[C@H](CO)NC(=O)[C@@H](NC(=O)[C@H](CC(=O)O)NC(=O)[C@H](CO)NC(=O)[C@@H](NC(=O)[C@H](Cc1ccccc1)NC(=O)[C@@H](NC(=O)CNC(=O)[C@H](CCC(=O)O)NC(=O)C(C)(C)NC(=O)[C@@H](N)Cc1cnc[nH]1)[C@@H](C)O)[C@@H](C)O)C(C)C)C(=O)N[C@@H](C)C(=O)N[C@@H](Cc1c[nH]c2ccccc12)C(=O)N[C@@H](CC(C)C)C(=O)N[C@H](C(=O)N[C@@H](CCCNC(=N)N)C(=O)NCC(=O)N[C@@H](CCCNC(=N)N)C(=O)NCC(=O)O)C(C)C [semaglutide, Semaglutide] as the molecule, how does the t½ [1] read?
Answer: approximately 1 week

Question: And the Anti-semaglutide antibodies [2]?
Answer: no anti-

Question: And the “Any TEAE, number of participants with events (%)” value [2]?
Answer: 28 (75.7)

Question: And the “Gastrointestinal disorders, number of participants with events (%)” value [2]?
Answer: 19 (51.4)

Question: And the “Injury, poisoning and procedural complications, number of participants with events (%)” value [2]?
Answer: 1 (2.7)

Question: And the “Metabolism and nutrition disorders, number of participants with events (%)” value [2]?
Answer: 4 (10.8)

Question: And the “Musculoskeletal and connective disorders, number of participants with events (%)” value [2]?
Answer: 1 (2.7)

Question: And the “Nervous system disorders, number of participants with events (%)” value [2]?
Answer: 5 (13.5)

Question: And the “Participants with TEAEs” value [2]?
Answer: 75.7%

Question: What about the Participants with diarrhoea [2] of the same molecule?
Answer: 10.8%

Question: And the “Participants with gastrointestinal TEAEs” value [2]?
Answer: 51.4%

Question: What about the Participants with nausea [2] of the same molecule?
Answer: 18.9%

Question: What about the Participants with vomiting [2] of the same molecule?
Answer: 16.2%

Question: What about the “Serious TEAE, number of participants with events (%)” value [2] of the same molecule?
Answer: 2 (5.4)

Question: What about the “Severe TEAE, number of participants with events (%)” value [2] of the same molecule?
Answer: 1 (2.7)

Question: What about the Systolic blood pressure [2] of the same molecule?
Answer: slightly decreased

Question: And the “TEAE leading to withdrawal, number of participants with events (%)” value [2]?
Answer: 1 (2.7)

Question: What about the “Vascular disorders, number of participants with events (%)” value [2] of the same molecule?
Answer: 3 (8.1)

Question: What about the Vz/F [3] of the same molecule?
Answer: 11.2 (18.6) l
